Drawing on a melting point compilation (Tetko et al.; mined from patent text by program, amines drawn as free bases though some values may be those of a salt), this text covers melting point for 88 compounds.

As usually defined, the melting point is the temperature, or range, at which the solid turns liquid.

`CC1OC(n2cc(F)c(NC(=O)OC3CCCCC3)nc2=O)C(O)C1O` (stereo not drawn) returned a melting point of 134 to 136 °C.

In turn, `CC(C)(C)OC(=O)n1cccc1-c1ccc2c(c1)C1(CCCCC1)C(=O)N2` came in with a melting point of 177 °C.

Take `CC(C)CC(NC(=O)C1CCCN1)C(=O)NCC(=O)Oc1c(Cl)c(Cl)c(Cl)c(Cl)c1Cl` (stereo not drawn): the melting point lay within 169 to 171 °C.

As to `Cc1cccc(Nc2cc(Nc3ccc(OCC#N)cc3)ncn2)c1`, the melting point lay in the range of 207 to 210 °C.

For the compound `O=C(Cn1c(=O)sc2ncc(Cl)cc21)N1CCN(CCO)CC1`, the melting point is 198 to 200 °C.

Regarding `O=C(O)CCCOc1cc(-c2ccccc2)nc2ccccc12`, the melting point was 264 °C.

The compound `COC(=O)c1ccc2c3cccc4cccc(c5ccc(C(=O)N(C)c6cc(C(C)(C)C)ccc6C(C)(C)C)c1c25)c43` came in with a melting point of 297 to 298 °C.

With `CC(C)OC(=O)C1=C(COCCN2C(=O)c3ccccc3C2=O)Nc2c(C#N)cnn2C1c1cccc(F)c1F` (stereo not drawn), the melting point lay within 176 to 177 °C.

Regarding `COc1cc(C)cc(OC)c1NC1C2CC3CC(C2)CC1C3` (stereo not drawn), the melting point was 100 °C.

Turning to `Cc1cc(Br)cnc1CCCCNC1=NS(=O)N=C1NCc1cccnc1` (stereo not drawn), the melting point lay in the range of 179 to 180 °C.

`COC1=C(OC)C(=O)C2=C(CCC(CCOc3ccc(NC(C)=O)cc3)CC2)C1=O` showed a melting point of 151 to 154 °C.

`Nc1nc(Cc2cccs2)no1`: the melting point lay in the range of 132 to 133 °C.

`CCCCNC1=CC(=O)c2c(OC)ccc(OC)c2C1=O` yielded a melting point of 104 to 105 °C.

Turning to `O=c1[nH]c2ccccc2cc1CN1CCN(c2ccc(Cl)cc2)CC1`, the melting point fell in the range of 256 to 259 °C.

With `Cn1c(=O)c(C#N)c(N2CCN(C(=O)c3ccco3)CC2)c2cc(F)ccc21`, the melting point worked out at 263 °C.

Compound `CCOCc1nc2c(NC(C)=O)nc3ccccc3c2n1CC(C)(C)NS(C)(=O)=O` returned a melting point of 75 to 76 °C.

`O=C(Nc1ccc(C(O)(C(F)(F)F)C(F)(F)F)cc1)Oc1ccccc1` displayed a melting point of 192 to 194 °C.

The compound `COc1cc(COc2ncccc2CC#N)ccc1OCc1nc(-c2ccccc2)oc1C` showed a melting point of 108 to 109 °C.

In the case of `Cc1cc(SC(C)C)c(NC(=O)CCCCSc2nc3cccc(C(F)(F)F)c3o2)c(SC(C)C)n1`, the melting point was 118 to 120 °C.

`CN1CCN(CC/C=C/c2cc3c(Nc4ccc5[nH]ccc5c4)c(C#N)cnc3s2)CC1` gave a melting point of 220 °C.

`COc1ccc(C(=O)c2sccc2OC2OC(COC(C)=O)C(OC(C)=O)C(OC(C)=O)C2OC(C)=O)cc1` (stereo not drawn) returned a melting point of 149 to 151 °C.

In turn, `C=CCNc1nc(NCCCCC)c2scc(C)c2n1` came in with a melting point of 64 to 65 °C.

For `O=C(c1ccccc1)c1nc2cc(C(c3ccccc3)n3ccnc3)ccc2[nH]1` (stereo not drawn), the melting point stood at 223 °C.

Consider `CC(C)OC(=O)Nc1ccc(Cl)c(-c2ccnc3c(C(=O)c4cccs4)cnn23)c1`, for which the melting point fell in the range of 234 to 236 °C.

The compound `CC(=O)c1cc(C#N)c(=O)[nH]c1-c1ccncc1` registered a melting point of 255 to 257 °C.

As for `CCCCCCC(C)(C)c1cc(O)cc(O)c1`, the melting point was in the range of 93 to 95 °C.

Turning to `CCOC(=O)C1=C(C)NC(C)=C(C(=O)OCC)C1c1ccc(Cl)cc1`, the melting point lay within 151 to 152 °C.

Consider `CCCN1C(=O)C2(CC(C)C)CC(c3ccc([N+](=O)[O-])cc3)(C2)C1=O`, for which the melting point lay in the range of 87 to 88 °C.

Consider `CC(C)C1(C)N=C(c2nc3c(cc2C(=O)O)CCO3)NC1=O` (stereo not drawn), for which the melting point fell in the range of 189 to 192 °C.

On to `C#CCN(Cc1cc2c(=O)n(C)c(CN3CCCCC3)nc2cc1Cl)c1ccc(C(=O)OC(C)(C)C)cc1`, for which the melting point is 162 to 163 °C.

The compound `NC(=O)c1cc(C(O)CN(Cc2ccccc2)Cc2ccccc2)cc2cc[nH]c12` (stereo not drawn) had a melting point of 116 to 118 °C.

Regarding `CC1CN(c2nc(N)nc(-c3cc(Cl)ccc3Cl)n2)CC(C)O1` (stereo not drawn), the melting point was 192 to 195 °C.

Regarding `Cn1cnnc1C(CCl)(c1ccc(Cl)cc1)c1ccc2c(c1)c(-c1cccc(Cl)c1)cc(=O)n2C` (stereo not drawn), the melting point is 260 °C.

`CC(=O)OC1(C(=O)CO)CCC2C3CC(C)C4=CC(=O)C=CC4(C)C3C(O)CC21C` (stereo not drawn): the melting point lay in the range of 198 to 201 °C.

The compound `O=c1[nH]c2c(c(O)c1[N+](=O)[O-])CCCCC2` registered a melting point above 264 °C.

On to `Oc1nc2ccc3cn[nH]c3c2nc1O`, for which the melting point is above 300 °C.

The compound `O=C1Nc2ccc(-c3cccc(Cl)c3)cc2C(c2ccccc2)O1` (stereo not drawn) displayed a melting point of 177 to 178 °C.

For `CCN(CC)CCOc1ccc(NC(=O)CC(=O)c2ccc(-c3ccccc3)cc2)cc1Cl`, the melting point lay in the range of 148 to 151 °C.

As for `COc1ccc(CCS(=O)(=O)CC2CCC2)cc1`, the melting point amounted to 52 °C.

Compound `COC[C@H]1CN(c2ccc(CCCC(=O)C3CCCCC3)cc2)C(=O)O1` gave a melting point of 86 °C.

The compound `O=C1NCN(c2ccc(F)cc2)C12CCN(CCNC(c1ccc(F)cc1)c1ccc(F)cc1)CC2` gave a melting point of 193 °C.

Compound `CC(/C=C/c1sccc1-c1ccc2c(c1)C(C)(C)CCC2(C)C)=C\C(=O)O` had a melting point of 188 to 189 °C.

The compound `CS(=O)(=O)c1ccc(-c2cnn(-c3cccc(Cl)c3)c(=O)c2-c2ccc(F)cc2)cc1` had a melting point of 232 to 235 °C.

The compound `CCNC(=O)C1CC(=O)N(Cc2ccccc2)C1` (stereo not drawn) displayed a melting point of 97 to 99 °C.

In turn, `c1cc2c(cc(-c3nnn[nH]3)c3nnnn32)s1` yielded a melting point of 267 to 269 °C.

As to `Cc1cccc(C(=O)Nc2c[nH]nc2C(=O)NCC(F)(F)F)n1`, the melting point lay within 257 to 258 °C.

`N#Cc1ccc(CN2CC=C(c3nc4ccccc4s3)CC2)cc1` came in with a melting point of 165 to 166 °C.

With `CS(=O)(=O)c1ccc(-n2nc(C(F)(F)F)cc2-c2nc3cc(F)ccc3s2)cc1`, the melting point was 204 to 205 °C.

Compound `COCc1cc2c(s1)CCCc1cc(=O)n(-c3ccc(OC)cc3)nc1-2` yielded a melting point of 115 to 117 °C.

The compound `CN1C(=O)CC[C@]2(C)c3ccc(Sc4nc5ccccc5s4)cc3CC[C@@H]12` gave a melting point of 188 to 189 °C.

As to `CCOc1cc(-n2c(=O)cc(C(F)(F)F)n(C)c2=O)c(F)cc1Br`, the melting point was 128 °C.

`O=C(NCc1ccccc1)c1cccc(-c2nc(=O)c3ccccc3s2)n1` returned a melting point of 197 to 198 °C.

`CSc1cnc(OCCOc2ncnc(NS(=O)(=O)c3ccc(C(C)(C)C)cc3)c2-c2ccc(C(=O)O)cc2)nc1`: the melting point fell in the range of 226 to 227 °C.

The compound `OCc1nccn1CCCc1ccc(OCc2coc(/C=C/c3ccccc3)n2)cc1` yielded a melting point of 143 to 144 °C.

`NC(=O)c1cc2c(Oc3ccc(Cl)cc3)cncc2s1` gave a melting point of 176 to 177 °C.

The compound `CCCCCCOc1nccc(C(N)=O)c1Cl` yielded a melting point of 75 to 77 °C.

In turn, `COC(=O)C1=NNC(C)=C(C(=O)OC)C1c1ccccc1` (stereo not drawn) registered a melting point of 187 °C.

For `CCOC(=O)C1=C(C)NC(N)=C(C(=O)OCC)C1c1ccco1` (stereo not drawn), the melting point worked out at 183 °C.

For the compound `O=c1c2ccccc2sn1CCN1CC=C(c2ccccc2)CC1`, the melting point is 90 to 92 °C.

As to `CC(C)(C)OC(=O)N1CCC(S(=O)(=O)Cl)CC1`, the melting point is 84.6 to 85.7 °C.

Turning to `CC=NOCc1nc2c(N)nc3ccccc3c2n1CC(C)C`, the melting point lay in the range of 155 to 156 °C.

As to `CCCCc1nc2ccccn2c(=O)c1-c1ccc(N[C@@H]2CCN(C(=O)OC(C)(C)C)C2)cc1C`, the melting point fell in the range of 162 to 168 °C.

`Cc1cc(Cn2cc(C(F)(F)C(F)(F)F)c(C(F)(F)C(F)(F)F)n2)ccc1NC(=O)c1cccc(Br)c1C(=O)N[C@@H](C)CS(C)(=O)=O` came in with a melting point of 134 to 136 °C.

For `CC(=O)SCC(C)C(=O)N(CC(=O)O)C1Cc2ccccc2C1` (stereo not drawn), the melting point is 81 to 83 °C.

For `CCN(CC)Nc1ccc(CN2OCC(C)(C)C2=O)c(Cl)c1`, the melting point fell in the range of 139 to 141 °C.

`Cc1cc(-c2ccccc2)n2nccc2n1`: the melting point lay in the range of 70 to 71 °C.

`COc1ccc2c(c1)c(CNc1ccccc1Oc1ccc(Cl)cc1)cn2C(C)=O`: the melting point lay within 140 to 141 °C.

Consider `CC(C)(C)OC(=O)N1CCC(CNC(=O)[C@@H]2CCCN2C(=O)OCc2ccccc2)CC1`, for which the melting point was found to be 50 °C.

In turn, `Cc1ccc(S(=O)(=O)CCCc2c[nH]c([N+](=O)[O-])n2)cc1` registered a melting point of 108 to 111 °C.

Take `CO[C@@H]1c2ccn3c(C)c(C)nc3c2N[C@H](c2ccccc2)[C@H]1OC=O`: the melting point fell in the range of 152 to 153 °C.

Take `Fc1ccc(Oc2ccc3nc(Cl)ncc3c2)c(F)c1`: the melting point lay within 110 to 113 °C.

Regarding `COC(=O)NC(=NS(=O)(=O)NC(C)C)SCc1ccccc1`, the melting point was in the range of 76 to 78 °C.

Compound `CS(=O)Cc1cc(=O)c2ccccc2o1` (stereo not drawn) gave a melting point of 142 to 146 °C.

In turn, `COc1ccc(C2CCN(CCC3CCCCc4ccccc43)CC2)cc1OC` (stereo not drawn) yielded a melting point of 127 to 128 °C.

Compound `NCC(O)COc1cccc(CN2CCCCC2)c1` (stereo not drawn) gave a melting point of 74 to 76.5 °C.

Compound `CCOC(=O)C1=C(C)NC(C)=C(C(=O)OCC)C1c1ccc(OC(C)(C)C(=O)OCC)cc1` returned a melting point of 215 °C.

Take `CC(O)C1CCCCCCCCCCC1` (stereo not drawn): the melting point came out at 35 °C.

For `O=C(CN1CS(=O)(=O)CC1=O)N1CCN(C(c2ccccc2)c2ccccc2)CC1`, the melting point lay within 209 to 211 °C.

Consider `FC(F)(F)C(=Cc1ccccc1)c1ccc(Cl)cc1`, for which the melting point is 63 to 66 °C.

The compound `CCc1cn2c(=O)c(C#N)cnc2c2ccccc12` had a melting point of 208 to 211 °C.

In turn, `CC(C)N(O)C(=O)CCC1C=CC2=C(Cc3ccccc3CO2)C1=O` (stereo not drawn) gave a melting point of 118 °C.

`Cc1ccccc1C1C(=O)CC2CCCCC2C1=O` (stereo not drawn) registered a melting point of 165 to 167 °C.

In the case of `COC(=O)c1c(O)c(-c2cccc(C(F)(F)F)c2)nn1C`, the melting point is 101 to 103 °C.

Compound `CC(O)c1ccc(-c2ccnc(Nc3ccc4c(c3)OCCO4)c2)cc1` (stereo not drawn) gave a melting point of 55.9 to 61.5 °C.

Regarding `Cc1nn(C)c(O)c1C(=O)c1ccc(Cl)c(OCCn2cnnn2)c1Cl`, the melting point was 63 to 68 °C.

Turning to `Fc1ccc(-c2ncn(CCN3CCOCC3)c2-c2ccncc2)cc1`, the melting point was 114 to 115 °C.

Consider `CC(=O)NCC1CN(c2ccc(N3CCN(c4nnc(C(F)(F)F)s4)CC3)c(F)c2)C(=O)O1` (stereo not drawn), for which the melting point lay within 255 to 257 °C.

`OC(Cn1cncn1)c1ccc(-c2ccc(Cl)cc2)cc1` (stereo not drawn) yielded a melting point of 199 °C.
